Measurements published in patent US20260356856A1, “KRAS G12S AND G12C INHIBITORS” (MIRATI THERAPEUTICS, INC., priority 2023, published 2026).

Assays:
KRas WT = target: T1, KRas WT (Homo sapiens, UniProt P01116); experiment: KRas binding assay, TR-FRET displacement of Cy5 labelled tracer; settings: 60-minute incubation at room temperature, 1% DMSO, pH 7.5
T1 construct: Biotinylated KRas (corresponding to amino acids 1-169, produced at Accelegan Inc.); biotin (biotinylated); purchased Accelegan Inc
T1 sequence (P01116 1-169 isoform P01116-2): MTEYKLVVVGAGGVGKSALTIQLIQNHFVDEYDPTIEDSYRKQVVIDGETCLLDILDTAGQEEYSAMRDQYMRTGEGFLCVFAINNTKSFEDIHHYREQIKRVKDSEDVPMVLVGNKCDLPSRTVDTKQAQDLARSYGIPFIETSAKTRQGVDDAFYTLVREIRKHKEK
Summary of the method: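 IC50 came from fitting POC values with a four-parameter equation. Signal was read after one hour at room temperature. Protein was biotin-tagged KRas 1-169 captured by terbium streptavidin, with compound in 1% DMSO (final).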

KRas G12S = target: T2, KRas G12S (Homo sapiens, UniProt P01116, G12S); experiment: as above; settings: 60-minute incubation at room temperature, 1% DMSO, pH 7.5
T2 construct: Biotinylated KRas (corresponding to amino acids 1-169, produced at Accelegan Inc.); biotin (biotinylated); purchased Accelegan Inc
T2 sequence (P01116 1-169 isoform P01116-2 G12S): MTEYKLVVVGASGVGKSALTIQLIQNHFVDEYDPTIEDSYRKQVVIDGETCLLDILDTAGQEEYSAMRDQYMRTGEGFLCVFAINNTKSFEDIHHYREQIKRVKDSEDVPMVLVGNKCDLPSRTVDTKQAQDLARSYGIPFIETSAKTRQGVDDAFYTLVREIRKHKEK
Summary of the method: (§1)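 Biotinylated KRas (aa 1-169) incubated with Cy5-labelled tracer, terbium streptavidin and compound (1% DMSO final) in 50 mM HEPES pH 7.5, 5 mM MgCl2, 0.005% Tween-20, 1 mM DTT. Tracer displacement read by TR-FRET after 60 min at room temperature; POC values fitted to 4-parameter IC50 equation.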

KRas G12C = target: T3, KRas G12C (Homo sapiens, UniProt P01116, G12C); experiment: as above; settings: 60-minute incubation at room temperature, 1% DMSO, pH 7.5
T3 construct: Biotinylated KRas (corresponding to amino acids 1-169, produced at Accelegan Inc.); biotin (biotinylated); purchased Accelegan Inc
T3 sequence (P01116 1-169 isoform P01116-2 G12C): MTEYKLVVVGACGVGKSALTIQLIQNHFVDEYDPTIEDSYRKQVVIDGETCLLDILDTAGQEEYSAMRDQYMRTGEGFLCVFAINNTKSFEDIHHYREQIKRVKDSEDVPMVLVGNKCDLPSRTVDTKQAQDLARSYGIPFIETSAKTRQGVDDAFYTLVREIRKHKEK
Summary of the method: as §1

[1] = target: T4, KRas-mediated phosphorylation of ERK in A549 cells (Homo sapiens, UniProt P01116, G12S); experiment: Inhibition of KRas-mediated phosphorylation of ERK (HTRF), A549 cells; type: cell-based; settings: HTRF pERK, 3 h incubation
T4 construct: pERK HTRF read-out
T4 sequence (P01116 1-188 isoform P01116-2 G12S): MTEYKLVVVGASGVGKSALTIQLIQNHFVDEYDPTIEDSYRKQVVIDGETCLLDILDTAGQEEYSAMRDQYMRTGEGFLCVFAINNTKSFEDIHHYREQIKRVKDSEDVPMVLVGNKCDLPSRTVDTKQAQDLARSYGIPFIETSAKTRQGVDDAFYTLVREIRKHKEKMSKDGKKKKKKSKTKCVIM

[2] = target: T5, KRas-mediated phosphorylation of ERK in MKN1 cells (Homo sapiens, UniProt P01116); experiment: Inhibition of KRas-mediated phosphorylation of ERK (HTRF), MKN1 cells; type: cell-based; settings: MKN1 cells (KRas WT); HTRF pERK; 3 h incubation
T5 construct: pERK HTRF read-out
T5 sequence (P01116 1-188 isoform P01116-2): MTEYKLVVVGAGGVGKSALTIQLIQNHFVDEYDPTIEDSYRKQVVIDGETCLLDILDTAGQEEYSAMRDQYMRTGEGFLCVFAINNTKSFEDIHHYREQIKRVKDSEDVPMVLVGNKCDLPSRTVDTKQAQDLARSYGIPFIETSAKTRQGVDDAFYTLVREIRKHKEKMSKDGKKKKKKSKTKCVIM
Procedure: Inhibition of KRas Phosphorylation of ERK (HTRF) by Exemplary Compounds of Formula (Ia) or (Ib)
Cisbio HTRF Advanced pERK Assay Catalog #64AERPEH • Cells: MKN1, PSN1 • Procedure: • 1. Day 1: Seed 6,000 cells/well −25 μl/well in 384-well white solid bottom plate; RPM1_10% FBS. Incubate overnight at 37 °C/5% CO2. • 2.

Compound	IC50 (KRas WT)	IC50 (KRas G12S)	IC50 (KRas G12C)	IC50 [1]	IC50 [2]
CCc1c(F)ccc2cc(O)cc(-c3ncc4c(NC[C@@H]5C[C@H]5C(=O)n5ccc(C)n5)nc(OC[C@@]56CCCN5C[C@H](F)C6)nc4c3F)c12 [Example 158, ((1R,2R)-2-(((7-(8-ethyl-7-fluoro-3-hydroxynaphthalen-1-yl)-8-fluoro-2-(((2R,7aS)-2-fluorotetrahydro-1H-pyrrolizin-7a(5H)-yl)methoxy)pyrido[4,3-d]pyrimidin-4-yl)amino)methyl)cyclopropyl)(3-methyl-1H-pyrazol-1-yl)methanone]	13 nM	23 nM	29 nM	126 nM	112 nM
CCc1c(F)ccc2cc(O)cc(-c3ncc4c(N5C[C@H]6C[C@H](C(=O)n7ccc(C)n7)C[C@H]6C5)nc(OC[C@@]56CCCN5C[C@H](F)C6)nc4c3F)c12 [Example 160, ((3aR,5R,6aS)-2-(7-(8-ethyl-7-fluoro-3-hydroxynaphthalen-1-yl)-8-fluoro-2-(((2R,7aS)-2-fluorotetrahydro-1H-pyrrolizin-7a(5H)-yl)methoxy)pyrido[4,3-d]pyrimidin-4-yl)octahydrocyclopenta[c]pyrrol-5-yl)(3-methyl-1H-pyrazol-1-yl)methanone]	258 nM	461 nM	1790 nM	3380 nM	3690 nM
CCc1c(F)ccc2cc(O)cc(-c3ncc4c(N(C)CCCS(=O)(=O)n5ccnc5)nc(OC[C@@]56CCCN5C[C@H](F)C6)nc4c3F)c12 [Example 163, 4-(4-((3-((1H-imidazol-1-yl)sulfonyl)propyl)(methyl)amino)-8-fluoro-2-(((2R,7aS)-2-fluorotetrahydro-1H-pyrrolizin-7a(5H)-yl)methoxy)pyrido[4,3-d]pyrimidin-7-yl)-5-ethyl-6-fluoronaphthalen-2-ol]	98 nM	129 nM	131 nM	7590 nM	1250 nM
CCc1c(F)ccc2cc(O)cc(-c3ncc4c(N5CCC(C(=O)N(C)C(=O)C(C)C)CC5)nc(OC[C@@]56CCCN5C[C@H](F)C6)nc4c3F)c12 [Example 166, 1-(7-(8-ethyl-7-fluoro-3-hydroxynaphthalen-1-yl)-8-fluoro-2-(((2R,7aS)-2-fluorotetrahydro-1H-pyrrolizin-7a(5H)-yl)methoxy)pyrido[4,3-d]pyrimidin-4-yl)-N-isobutyryl-N-methylpiperidine-4-carboxamide]	229 nM	203 nM	310 nM	1780 nM	622 nM
CCc1c(F)ccc2cc(O)cc(-c3ncc4c(N5CCCC(C(=O)n6ccc(C)n6)CC5)nc(OC[C@@H]5CCCN5C)nc4c3F)c12 (stereo partly drawn) [Example 168, (1-(7-(8-ethyl-7-fluoro-3-hydroxynaphthalen-1-yl)-8-fluoro-2-(((S)-1-methylpyrrolidin-2-yl)methoxy)pyrido[4,3-d]pyrimidin-4-yl)azepan-4-yl)(3-methyl-1H-pyrazol-1-yl)methanone]	1380 nM	72 nM	384 nM	245 nM	8690 nM
Cc1ccn(C(=O)C2CCCCCN(c3nc(OC[C@@]45CCCN4C[C@H](F)C5)nc4c(F)c(-c5ccc(F)c6sc(N)c(C#N)c56)c(Cl)cc34)C2)n1 (stereo partly drawn) [Example 173, 2-amino-4-(6-chloro-8-fluoro-2-(((2R,7aS)-2-fluorotetrahydro-1H-pyrrolizin-7a(5H)-yl)methoxy)-4-(3-(3-methyl-1H-pyrazole-1-carbonyl)azocan-1-yl)quinazolin-7-yl)-7-fluorobenzo[b]thiophene-3-carbonitrile]	31 nM	27 nM	29 nM	772 nM	54 nM
CCc1c(F)ccc2cc(O)cc(-c3c(F)cc4c(N5CCCC(C(=O)n6ccc(C)n6)CC5)nc(OC[C@@]56CCCN5C[C@H](F)C6)nc4c3F)c12 (stereo partly drawn) [Example 174, (1-(7-(8-ethyl-7-fluoro-3-hydroxynaphthalen-1-yl)-6,8-difluoro-2-(((2R,7aS)-2-fluorotetrahydro-1H-pyrrolizin-7a(5H)-yl)methoxy)quinazolin-4-yl)azepan-4-yl)(3-methyl-1H-pyrazol-1-yl)methanone]	1120 nM	182 nM	1120 nM	507 nM	3000 nM
Cc1ccn(C(=O)[C@@H]2[C@@H]3CCN(c4nc(OC[C@@]56CCCN5C[C@H](F)C6)nc5c(F)c(-c6ccc(F)c7sc(N)c(C#N)c67)c(Cl)cc45)C[C@@H]32)n1 [Example 179, 2-amino-4-(6-chloro-8-fluoro-2-(((2R,7aS)-2-fluorotetrahydro-1H-pyrrolizin-7a(5H)-yl)methoxy)-4-((1S,6R)-7-(3-methyl-1H-pyrazole-1-carbonyl)-3-azabicyclo[4.1.0]heptan-3-yl)quinazolin-7-yl)-7-fluorobenzo[b]thiophene-3-carbonitrile]	26 nM	42 nM	64 nM	167 nM	110 nM
Cc1ccn(C(=O)[C@H]2C[C@H]2CNc2nc(OC[C@@]34CCCN3C[C@H](F)C4)nc3c(F)c(-c4ccc(F)c5sc(N)c(C#N)c45)c(Cl)cc23)n1 [Example 182, 2-amino-4-(6-chloro-8-fluoro-2-(((2R,7aS)-2-fluorotetrahydro-1H-pyrrolizin-7a(5H)-yl)methoxy)-4-((((cis)-2-(3-methyl-1H-pyrazole-1-carbonyl)cyclopropyl)methyl)amino)quinazolin-7-yl)-7-fluorobenzo[b]thiophene-3-carbonitrile]	35 nM	38 nM	24 nM	179 nM	247 nM
Cc1ccn(C(=O)C23CCC(CN(c4nc(OC[C@@]56CCCN5C[C@H](F)C6)nc5c(F)c(-c6ccc(F)c7sc(N)c(C#N)c67)c(Cl)cc45)C2)C3)n1 (stereo partly drawn) [Example 183, 2-amino-4-(6-chloro-8-fluoro-2-(((2R,7aS)-2-fluorotetrahydro-1H-pyrrolizin-7a(5H)-yl)methoxy)-4-(1-(3-methyl-1H-pyrazole-1-carbonyl)-3-azabicyclo[3.2.1]octan-3-yl)quinazolin-7-yl)-7-fluorobenzo[b]thiophene-3-carbonitrile]	5 nM	3 nM	4 nM	143 nM	192 nM
Cc1ccn(C(=O)C23CC(CNc4nc(OC[C@@]56CCCN5C[C@H](F)C6)nc5c(F)c(-c6ccc(F)c7sc(N)c(C#N)c67)c(Cl)cc45)(C2)C3)n1 [Example 184, 2-amino-4-(6-chloro-8-fluoro-2-(((2R,7aS)-2-fluorotetrahydro-1H-pyrrolizin-7a(5H)-yl)methoxy)-4-(((3-(3-methyl-1H-pyrazole-1-carbonyl)bicyclo[1.1.1]pentan-1-yl)methyl)amino)quinazolin-7-yl)-7-fluorobenzo[b]thiophene-3-carbonitrile]	27 nM	6 nM	5 nM	115 nM	1500 nM
Cc1ccn(C(=O)[C@H]2CCN(c3nc(OC[C@@]45CCCN4C[C@H](F)C5)nc4c(F)c(-c5ccc(F)c6sc(N)c(C#N)c56)c(Cl)cc34)C[C@H]2C)n1 [Example 185, 2-amino-4-(6-chloro-8-fluoro-2-(((2R,7aS)-2-fluorotetrahydro-1H-pyrrolizin-7a(5H)-yl)methoxy)-4-((cis)-3-methyl-4-(3-methyl-1H-pyrazole-1-carbonyl)piperidin-1-yl)quinazolin-7-yl)-7-fluorobenzo[b]thiophene-3-carbonitrile]	6 nM	12 nM	18 nM	250 nM	65 nM
N#Cc1c(N)sc2c(F)ccc(-c3c(Cl)cc4c(N5CCN(S(=O)(=O)n6cnnc6)CC5)nc(OC[C@@]56CCCN5C[C@H](F)C6)nc4c3F)c12 [Example 187, 4-(4-(4-((4H-1,2,4-triazol-4-yl)sulfonyl)piperazin-1-yl)-6-chloro-8-fluoro-2-(((2R,7aS)-2-fluorotetrahydro-1H-pyrrolizin-7a(5H)-yl)methoxy)quinazolin-7-yl)-2-amino-7-fluorobenzo[b]thiophene-3-carbonitrile]	11 nM	33 nM	40 nM	1360 nM	127 nM
CCc1c(F)ccc2cc(O)cc(N3CCc4c(nc(OC[C@@]56CCCN5C[C@H](F)C6)nc4NCCCC(=O)n4ccc(C)n4)C3)c12 [Example 193, 4-((7-(8-ethyl-7-fluoro-3-hydroxynaphthalen-1-yl)-2-(((2R,7aS)-2-fluorotetrahydro-1H-pyrrolizin-7a(5H)-yl)methoxy)-5,6,7,8-tetrahydropyrido[3,4-d]pyrimidin-4-yl)amino)-1-(3-methyl-1H-pyrazol-1-yl) butan-1-one]	113 nM	11 nM	5 nM	230 nM	2140 nM
